Molecules are shown by their SMILES.

The record followed here is ChEMBL document CHEMBL4002567, “Rational design and synthesis of 1,5-disubstituted tetrazoles as potent inhibitors of the MDM2-p53 interaction” (Eur J Med Chem, 2017).

Assay [1] deals with E3 ubiquitin-protein ligase Mdm2 (Homo sapiens, UniProt Q00987).
The target of the next assay is T1, Protein Mdm4 (Homo sapiens, UniProt O15151).
T1 sequence (O15151 whole entry): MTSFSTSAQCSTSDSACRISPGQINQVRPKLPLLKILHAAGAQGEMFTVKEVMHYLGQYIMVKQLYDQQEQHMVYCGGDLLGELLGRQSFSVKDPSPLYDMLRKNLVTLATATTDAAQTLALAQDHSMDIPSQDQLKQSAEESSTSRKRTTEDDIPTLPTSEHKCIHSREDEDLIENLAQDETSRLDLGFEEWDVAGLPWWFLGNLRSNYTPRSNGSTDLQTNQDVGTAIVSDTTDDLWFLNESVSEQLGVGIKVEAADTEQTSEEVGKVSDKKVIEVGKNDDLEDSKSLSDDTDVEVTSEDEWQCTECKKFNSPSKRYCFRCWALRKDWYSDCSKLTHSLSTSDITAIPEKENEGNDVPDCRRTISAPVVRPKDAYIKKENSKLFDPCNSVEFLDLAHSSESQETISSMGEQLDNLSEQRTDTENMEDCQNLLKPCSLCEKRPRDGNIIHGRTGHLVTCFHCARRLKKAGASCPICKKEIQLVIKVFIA

Sequence of E3 ubiquitin-protein ligase Mdm2 (Q00987 whole entry): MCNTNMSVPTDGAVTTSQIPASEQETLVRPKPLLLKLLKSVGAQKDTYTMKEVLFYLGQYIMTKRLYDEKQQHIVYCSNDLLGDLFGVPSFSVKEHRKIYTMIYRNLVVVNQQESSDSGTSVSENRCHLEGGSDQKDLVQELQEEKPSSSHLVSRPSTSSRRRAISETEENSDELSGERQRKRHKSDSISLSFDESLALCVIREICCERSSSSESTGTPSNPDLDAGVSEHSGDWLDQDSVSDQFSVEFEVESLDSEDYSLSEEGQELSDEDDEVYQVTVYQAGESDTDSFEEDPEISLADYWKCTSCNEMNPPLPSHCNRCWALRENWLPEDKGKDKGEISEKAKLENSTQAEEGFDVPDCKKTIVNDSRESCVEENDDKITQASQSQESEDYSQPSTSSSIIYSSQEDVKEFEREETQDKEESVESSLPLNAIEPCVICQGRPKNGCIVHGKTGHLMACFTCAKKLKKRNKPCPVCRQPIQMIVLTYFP

Turning to `CCOC(=O)c1[nH]c2cc(Cl)ccc2c1C(NC1CCCCC1)c1nnnn1-c1ccc(OCc2ccccc2)cc1` (stereo unspecified), the Ki entry (in assay [1]; on Protein Mdm4) was “Not Active” throughout.

Regarding `CCCCCNC(c1c(C(=O)O)[nH]c2cc(Cl)ccc12)c1nnnn1-c1ccc(Cl)cc1` (stereo unspecified), the Ki – broadly, a measure of affinity in units of concentration, obtained from inhibition or displacement – on Protein Mdm4 was “Not Active”. On to `CCOC(=O)c1[nH]c2cc(Cl)ccc2c1C(NC1CCCC1)c1nnnn1-c1ccc(OCc2ccccc2)cc1` (stereo unspecified), for which the inhibition constant Ki result (in assay [1]; at Protein Mdm4) was “Not Active” in each case. In the case of `O=C(O)c1[nH]c2cc(Cl)ccc2c1C(NCC1CCCCC1)c1nnnn1-c1ccc(OCc2ccccc2Br)cc1` (stereo unspecified), on Protein Mdm4, the Ki result is “Not Active”. Still for that read-out and setting: the entry for `CCCCCNC(c1c(C(=O)O)[nH]c2cc(Cl)ccc12)c1nnnn1-c1ccc(C(C)C)cc1` (stereo unspecified) is “Not Active”. For `O=C(O)c1[nH]c2cc(Cl)ccc2c1C(NCC1CCCCC1)c1nnnn1Cc1ccc(OCc2ccccc2Cl)cc1` (stereo unspecified), at Protein Mdm4, the Ki result is “Not Active”. Regarding `CCCCCNC(c1c(C(=O)O)[nH]c2cc(Cl)ccc12)c1nnnn1-c1ccc(OCc2ccc(Br)cc2)cc1` (stereo unspecified), the Ki result on Protein Mdm4 is on record as “Not Active”. The same measure, in the same setting: to `O=C(O)c1[nH]c2cc(Cl)ccc2c1C(NCC1CCCCC1)c1nnnn1Cc1ccc(OCc2ccccc2F)cc1` (stereo unspecified) belongs “Not Active”; to `O=C(O)c1[nH]c2cc(Cl)ccc2c1C(NC1C2CC3CC(C2)CC1C3)c1nnnn1-c1ccc(OCc2ccccc2Br)cc1` (stereo unspecified), “Not Active”. Take `CCCCCNC(c1c(C(=O)OCC)[nH]c2cc(Cl)ccc12)c1nnnn1Cc1ccc(OCc2ccccc2Br)cc1` (stereo unspecified): the inhibitory constant (Ki) entry (in assay [1]; at Protein Mdm4) was “Not Active” in each case.

For the compound `CCCCCNC(c1c(C(=O)OCC)[nH]c2cc(Cl)ccc12)c1nnnn1Cc1ccc(OCc2ccccc2F)cc1` (stereo unspecified), the inhibition constant Ki result on Protein Mdm4 is on record as “Not Active”. Consider `CCOC(=O)c1[nH]c2cc(Cl)ccc2c1C(NC1CCCCC1)c1nnnn1-c1cccc(Oc2ccccc2)c1` (stereo unspecified), for which the Ki result (in assay [1]; on Protein Mdm4) was “Not Active” each time. As for `CCOC(=O)c1[nH]c2cc(Cl)ccc2c1C(NC1CCCCCC1)c1nnnn1-c1ccc(OCc2ccccc2)cc1` (stereo unspecified), the Ki result (in assay [1]; on Protein Mdm4) was “Not Active” each time. As for `O=C(O)c1[nH]c2cc(Cl)ccc2c1C(NCC1CCCCC1)c1nnnn1Cc1ccc(OCc2ccccc2Br)cc1` (stereo unspecified), the inhibition constant Ki result on Protein Mdm4 is reported as “Not Active”.

Regarding `CCOC(=O)c1[nH]c2cc(Cl)ccc2c1C(NCC1CCCCC1)c1nnnn1-c1ccc(OCc2ccccc2Br)cc1` (stereo unspecified), the inhibition constant Ki entry (in assay [1]; on Protein Mdm4) was “Not Active” in each case.

`CCCCCNC(c1c(C(=O)OCC)[nH]c2cc(Cl)ccc12)c1nnnn1-c1ccc(F)c(Cl)c1` (stereo unspecified): the inhibition constant (Ki) result (in assay [1]; on Protein Mdm4) was “Not Active” throughout. For `CCCCCNC(c1c(C(=O)OCC)[nH]c2cc(Cl)ccc12)c1nnnn1-c1ccc(Cl)cc1` (stereo unspecified), the inhibition constant Ki result (in assay [1]; at Protein Mdm4) was “Not Active” each time.

As to `CCCCCNC(c1c(C(=O)O)[nH]c2cc(Cl)ccc12)c1nnnn1-c1ccc(OCc2c(Cl)cccc2Cl)cc1` (stereo unspecified), the Ki entry at Protein Mdm4 is “Not Active”. Regarding `O=C(O)c1[nH]c2cc(Cl)ccc2c1C(NC1CCCCC1)c1nnnn1-c1cccc(Oc2ccccc2)c1` (stereo unspecified), the inhibitory constant (Ki) entry at Protein Mdm4 was “Not Active”. For `O=C(O)c1[nH]c2cc(Cl)ccc2c1C(NC1CCCCCC1)c1nnnn1-c1cccc(OCc2ccccc2)c1` (stereo unspecified), on Protein Mdm4, the Ki result is “Not Active”. With `CCOC(=O)c1[nH]c2cc(Cl)ccc2c1C(NC1CCCCC1)c1nnnn1-c1cccc(OCc2ccccc2)c1` (stereo unspecified), the inhibition constant Ki entry (in assay [1]; on Protein Mdm4) was “Not Active” in each case. `CCOC(=O)c1[nH]c2cc(Cl)ccc2c1C(NCC1CCCCC1)c1nnnn1-c1ccc(F)c(Cl)c1` (stereo unspecified): the Ki result (in assay [1]; on Protein Mdm4) was “Not Active” throughout. For `CCOC(=O)c1[nH]c2cc(Cl)ccc2c1C(NCC1CCCCC1)c1nnnn1Cc1ccc(Cl)cc1` (stereo unspecified), the Ki entry (in assay [1]; at Protein Mdm4) was “Not Active” each time. As for `O=C(O)c1[nH]c2cc(Cl)ccc2c1C(NC1CCCC1)c1nnnn1-c1cccc(OCc2ccccc2)c1` (stereo unspecified), the Ki entry on Protein Mdm4 is recorded as “Not Active”. As to `O=C(O)c1[nH]c2cc(Cl)ccc2c1C(NCC1CCCCC1)c1nnnn1-c1ccc(OCc2c(Cl)cccc2Cl)cc1` (stereo unspecified), the inhibition constant (Ki) result on Protein Mdm4 is on record as “Not Active”. On to `O=C(O)c1[nH]c2cc(Cl)ccc2c1C(NC1CCCCCC1)c1nnnn1-c1ccc(OCc2ccccc2)cc1` (stereo unspecified), for which the inhibition constant Ki result on Protein Mdm4 is reported as “Not Active”. Consider `CCCCCNC(c1c(C(=O)OCC)[nH]c2cc(Cl)ccc12)c1nnnn1Cc1ccc(Cl)cc1` (stereo unspecified), for which the inhibitory constant (Ki) entry (in assay [1]; at Protein Mdm4) was “Not Active” throughout. On to `CCOC(=O)c1[nH]c2cc(Cl)ccc2c1C(NCC1CCCCC1)c1nnnn1-c1ccc(OCc2ccc(Br)cc2)cc1` (stereo unspecified), for which the Ki entry (in assay [1]; at Protein Mdm4) was “Not Active” each time. In the case of `CCOC(=O)c1[nH]c2cc(Cl)ccc2c1C(NCC1CCCCC1)c1nnnn1Cc1ccc(OCc2ccccc2Br)cc1` (stereo unspecified), the inhibition constant Ki entry (in assay [1]; on Protein Mdm4) was “Not Active” each time. In the case of `CCCCCNC(c1c(C(=O)O)[nH]c2cc(Cl)ccc12)c1nnnn1Cc1ccc(OCc2ccccc2Br)cc1` (stereo unspecified), the inhibition constant (Ki) result at Protein Mdm4 is on record as “Not Active”.

Turning to `CCOC(=O)c1[nH]c2cc(Cl)ccc2c1C(NC1CCC1)c1nnnn1-c1ccc(OCc2ccccc2Br)cc1` (stereo unspecified), the Ki entry (in assay [1]; on Protein Mdm4) was “Not Active” in each case.

`O=C(O)c1[nH]c2cc(Cl)ccc2c1C(NCC1CCCCC1)c1nnnn1Cc1ccc(Cl)cc1` (stereo unspecified): the Ki entry on Protein Mdm4 is on record as “Not Active”.

In the case of `CCCCCNC(c1c(C(=O)O)[nH]c2cc(Cl)ccc12)c1nnnn1-c1ccc(OCc2ccccc2Br)cc1` (stereo unspecified), the inhibitory constant (Ki) entry at Protein Mdm4 is recorded as “Not Active”. Regarding `CCCCCNC(c1c(C(=O)OCC)[nH]c2cc(Cl)ccc12)c1nnnn1-c1ccc(OCc2ccc(Br)cc2)cc1` (stereo unspecified), the Ki entry (in assay [1]; at Protein Mdm4) was “Not Active” throughout.

Take `O=C(O)c1[nH]c2cc(Cl)ccc2c1C(NC1CCCCCC1)c1nnnn1-c1cccc(Oc2ccccc2)c1` (stereo unspecified): at Protein Mdm4, the inhibition constant Ki result is “Not Active”. On the same count and under the same terms, to `O=C(O)c1[nH]c2cc(Cl)ccc2c1C(NC1CCCC1)c1nnnn1-c1cccc(Oc2ccccc2)c1` (stereo unspecified) belongs “Not Active”. For the compound `CCCCCNC(c1c(C(=O)OCC)[nH]c2cc(Cl)ccc12)c1nnnn1Cc1ccc(OCc2ccccc2Cl)cc1` (stereo unspecified), the inhibition constant Ki entry (in assay [1]; at Protein Mdm4) was “Not Active” in each case.

For the compound `O=C(O)c1[nH]c2cc(Cl)ccc2c1C(NC1CCC1)c1nnnn1-c1ccc(OCc2ccccc2Br)cc1` (stereo unspecified), the inhibition constant (Ki) entry at Protein Mdm4 was “Not Active”. On to `CCOC(=O)c1[nH]c2cc(Cl)ccc2c1C(NC1CCCCCC1)c1nnnn1-c1cccc(OCc2ccccc2)c1` (stereo unspecified), for which the Ki result (in assay [1]; on Protein Mdm4) was “Not Active” each time. Regarding `O=C(O)c1[nH]c2cc(Cl)ccc2c1C(NC1CCCCC1)c1nnnn1-c1cccc(OCc2ccccc2)c1` (stereo unspecified), at Protein Mdm4, the inhibition constant Ki entry is listed as “Not Active”. With `CCCCCNC(c1c(C(=O)OCC)[nH]c2cc(Cl)ccc12)c1nnnn1-c1ccc(OCc2ccccc2Br)cc1` (stereo unspecified), the inhibition constant (Ki) entry (in assay [1]; at Protein Mdm4) was “Not Active” in each case.

`CCCCCNC(c1c(C(=O)O)[nH]c2cc(Cl)ccc12)c1nnnn1Cc1ccc(OCc2ccccc2Cl)cc1` (stereo unspecified): the Ki result at Protein Mdm4 is on record as “Not Active”. For `CCOC(=O)c1[nH]c2cc(Cl)ccc2c1C(NC1CCCC1)c1nnnn1-c1cccc(Oc2ccccc2)c1` (stereo unspecified), the inhibition constant (Ki) entry (in assay [1]; at Protein Mdm4) was “Not Active” each time. For `CCCCCNC(c1c(C(=O)OCC)[nH]c2cc(Cl)ccc12)c1nnnn1-c1ccc(OCc2c(Cl)cccc2Cl)cc1` (stereo unspecified), the inhibition constant (Ki) result (in assay [1]; on Protein Mdm4) was “Not Active” in each case. Turning to `O=C(O)c1[nH]c2cc(Cl)ccc2c1C(NC1CCCC1)c1nnnn1-c1ccc(OCc2ccccc2)cc1` (stereo unspecified), at Protein Mdm4, the inhibition constant Ki entry is reported as “Not Active”. On the same count and under the same terms, to `CCCCCNC(c1c(C(=O)O)[nH]c2cc(Cl)ccc12)c1nnnn1Cc1ccc(Cl)cc1` (stereo unspecified) belongs “Not Active”.

Regarding `CCOC(=O)c1[nH]c2cc(Cl)ccc2c1C(NCC1CCCCC1)c1nnnn1-c1ccc(OCc2c(Cl)cccc2Cl)cc1` (stereo unspecified), the Ki result (in assay [1]; on Protein Mdm4) was “Not Active” throughout.

`CCOC(=O)c1[nH]c2cc(Cl)ccc2c1C(NCc1ccc(Cl)cc1)c1nnnn1Cc1ccc(OCc2ccccc2Br)cc1` (stereo unspecified): the Ki entry (in assay [1]; on Protein Mdm4) was “Not Active” in each case. Consider `CC(C)c1ccc(-n2nnnc2C(NCC2CCCCC2)c2c(C(=O)O)[nH]c3cc(Cl)ccc23)cc1` (stereo unspecified), for which the Ki entry at Protein Mdm4 was “Not Active”.

For `O=C(O)c1[nH]c2cc(Cl)ccc2c1C(NCC1CCCCC1)c1nnnn1-c1ccc(OCc2ccc(Br)cc2)cc1` (stereo unspecified), the inhibition constant (Ki) result on Protein Mdm4 is “Not Active”. On the same count and under the same terms, to `O=C(O)c1[nH]c2cc(Cl)ccc2c1C(NCc1ccc(Cl)cc1)c1nnnn1Cc1ccc(Cl)cc1` (stereo unspecified) belongs “Not Active”; to `O=C(O)c1[nH]c2cc(Cl)ccc2c1C(NC1CCCCC1)c1nnnn1-c1ccc(OCc2ccccc2)cc1` (stereo unspecified), “Not Active”. For `CCOC(=O)c1[nH]c2cc(Cl)ccc2c1C(NC1CCCCCC1)c1nnnn1-c1cccc(Oc2ccccc2)c1` (stereo unspecified), the Ki entry (in assay [1]; at Protein Mdm4) was “Not Active” throughout. Regarding `CCOC(=O)c1[nH]c2cc(Cl)ccc2c1C(NCC1CCCCC1)c1nnnn1-c1ccc(Cl)cc1` (stereo unspecified), in assay [1] (read-out: Ki), the Ki is 117 µM. As to `CCCCCNC(c1c(C(=O)O)[nH]c2cc(Cl)ccc12)c1nnnn1-c1ccc(F)c(Cl)c1` (stereo unspecified), the Ki result on Protein Mdm4 is listed as “Not Active”. `O=C(O)c1[nH]c2cc(Cl)ccc2c1C(NCc1ccc(Cl)cc1)c1nnnn1Cc1ccc(OCc2ccccc2Br)cc1` (stereo unspecified): at Protein Mdm4, the Ki result is given as “Not Active”. `O=C(O)c1[nH]c2cc(Cl)ccc2c1C(NCC1CCCCC1)c1nnnn1-c1ccc(F)c(Cl)c1` (stereo unspecified): the Ki result at Protein Mdm4 is on record as “Not Active”.
